Results from ChEMBL document CHEMBL1144822, “Gymnastatins and dankastatins, growth inhibitory metabolites of a gymnascella species from a Halichondria sponge” (2008).
In brackets after ≈: the same amount, converted by molar mass.

Tests used:
P388 = experiment: Growth inhibition of mouse P388 cells; type: functional; settings: read-out: ED50 (the source's name)
[1] = Growth inhibition of human BSY1 cells; type: functional; settings: BSY-1, read-out: Log10GI50 (converted)
MKN-7 = experiment: Growth inhibition of human MKN7 cells; type: functional; settings: read-out: Log10GI50 (converted)
[2] = test system: 39 human cancer cell line panel (Homo sapiens); experiment: Growth inhibition of 39 human cancer cell line panel; settings: read-out: Log10GI50 (converted)

EC50 (P388) [µg/mL]	GI50 (MKN-7) [µM]	GI50 [2] [µM]	SMILES	GI50 [1] [µM]
0.15 (≈ 0.307 µM)			CCCCCC[C@@H](C)/C=C(C)/C=C/C(=O)N[C@H]1C[C@@]2(O)C=C(Cl)C(=O)[C@@H](Cl)[C@H]2O[C@@H]1OC [DANKASTATIN A]	
0.16 (≈ 0.349 µM)			CCCCCC[C@@H](C)/C=C(C)/C=C/C(=O)N[C@@H]1CO[C@H]2[C@@H](Cl)C(=O)C(Cl)=C[C@@]2(O)C1 [DANKASTATIN B]	
1.7 (≈ 3.48 µM)	6.76	15.5	CCCCCC[C@@H](C)/C=C(C)/C=C/C(=O)N[C@H]1C[C@]2(O)C=C(Cl)C(=O)[C@](Cl)([C@@H]1O)[C@H]2OC [GYMNASTATIN Q]	3.39
2.8 (≈ 6.11 µM)			CCCCCC[C@@H](C)/C=C(C)/C=C/C(=O)N[C@H]1C[C@]2(O)C=C(Cl)C(=O)[C@@](Cl)(C2)[C@H]1O [GYMNASTATIN R]	
